Assay results reported in patent US20250281740A1, “Electroporation process for delivering a composition comprising at least one peptide of molecular weight ranging from 500 Da to 20 kDa” (L'OREAL, priority 2021, published 2025).

Assay: penetration into a human skin sample, topical application versus application combined with electroporation, amount determined by ELISA
Type: in vitro ADME
Source text: To test the effect of the device, a sample of human skin is peripherally attached to a support, with the counterelectrode of the electroporation device placed between the inner face of the skin and the support. The electrode of the electroporation device is placed in contact with the outer face of the skin sample. The case of the electroporation device is immobilized by a support. The support is placed on an orbital shaker, so that the electrode moves over the surface of the skin. The device used in this example is a BTX Gemini X2 programmable signal generator (Harvard Instruments). The electroporation treatment time is about 1 minute. It consists of 81 pulses of 10 ms each, with rest periods of 500 ms between the pulses. The polarity chosen is negative, i.e. the electrode is at a negative potential relative to the counterelectrode. On the skin, the voltage between the electrode and the counterelectrode is about 40 V. 50 μl of […] are applied before the device is placed in position (corresponding to 100 μl/cm^2). […] Results The skin is removed from the experimental system and then analysed to determine the amount of N-acetyl-3-trifluoromethyl-phenyl-(valine-glycine) which has penetrated, via an ELISA technique.

CC(=O)N(c1cccc(C(F)(F)F)c1)C(C(=O)NCC(=O)O)C(C)C (centres unmarked) [N-acetyl-3-trifluoromethyl-phenyl-(valine-glycine)]
amount that has penetrated into the skin (electroporation process (81 pulses of 10 ms, 500 ms rest, about 40 V, negative polarity) compared with topical application of an identical composition, 1% formulations 1 and 2, 100 μl/cm^2, FIG. 4): much higher | amount that has penetrated into the skin (FIG. 5) (electroporation process compared with topical application of an identical composition, FIG. 5): log higher
